Experimental data from US10370727B2, “Point mutations in TRK inhibitor-resistant cancer and methods relating to the same” (Loxo Oncology, Inc., priority 2015, dated 2019).

Experiments:
Assay in all cases: Trk enzyme assay ([33P] incorporation into poly-EAY)
Format in all cases: biochemical
TrkB G623R = TrkB G623R (Homo sapiens, UniProt Q16620, G623R); settings: mutant TrkB G623R enzyme; 22° C., 60 minutes
Method: (§1) The assays were conducted in 96-well polypropylene v-bottom microtitre plates (Corning, Costar® 3363) in a total volume of 50 μL. […] The radiolabeled product was then captured on glass fiber filter plates (PerkinElmer, Unifilter®-96, GF/B®) and washed with 5% phosphoric acid to remove unbound radiolabel using a Tomtec MACH III Harvester 96®. After adding 35 μL/well of Bio-Safe II™ liquid scintillation cocktail (Research Products International), the plates were counted in a TopCount NXT (PerkinElmer) using a counting time of 30 s/well. The activity at each concentration of compound was expressed as percent of control (POC) and plotted versus compound concentration.

TrkB WT = TrkB WT (Homo sapiens, UniProt Q16620); settings: wild-type TrkB enzyme; 22° C., 60 minutes
Method: as §1

TrkC F617L = TrkC F617L (Homo sapiens, UniProt Q16288, F617L/S70N); settings: mutant TrkC F617L enzyme; 22° C., 60 minutes
Method: as §1

TrkC G623R = TrkC G623R (Homo sapiens, UniProt Q16288, G623R/S70N); settings: mutant TrkC G623R enzyme; 22° C., 60 minutes
Method: The radiolabeled product was then captured on glass fiber filter plates (PerkinElmer, Unifilter®-96, GF/B®) and washed with 5% phosphoric acid to remove unbound radiolabel using a Tomtec MACH III Harvester 96®. After adding 35 μL/well of Bio-Safe II™ liquid scintillation cocktail (Research Products International), the plates were counted in a TopCount NXT (PerkinElmer) using a counting time of 30 s/well. The activity at each concentration of compound was expressed as percent of control (POC) and plotted versus compound concentration.

TrkC WT = TrkC WT (Homo sapiens, UniProt Q16288, S70N); settings: wild-type TrkC enzyme; 22° C., 60 minutes
Method: as §1

TrkA G667C = TrkA G667C (Homo sapiens, UniProt P04629, G667C); settings: mutant TrkA G667C enzyme; 22° C., 60 minutes
Method: (§2) The activity of the various Trk compounds exemplified in Table 6 was determined by monitoring the incorporation of [^33P]PO4 from [γ-^33P]ATP into poly-EAY (Sigma-Aldrich, P3899).
as §1

TrkA F589L = TrkA F589L (Homo sapiens, UniProt P04629, F589L); settings: mutant TrkA F589L enzyme; 22° C., 60 minutes
Method: as §2, §1

TrkA V573M = TrkA V573M (Homo sapiens, UniProt P04629, V573M); settings: mutant TrkA V573M enzyme; 22° C., 60 minutes
Method: as §2, §1

TrkA WT = TrkA WT (Homo sapiens, UniProt P04629); settings: wild-type TrkA enzyme; 22° C., 60 minutes
Method: as §1

TrkA G667S = TrkA G667S (Homo sapiens, UniProt P04629, G667S); settings: mutant TrkA G667S enzyme; 22° C., 60 minutes
Method: as §2, §1

TrkA G595R = TrkA G595R (Homo sapiens, UniProt P04629, G595R); settings: mutant TrkA G595R enzyme; 22° C., 60 minutes
Chain of TrkA G595R (P04629 33-796 G595R): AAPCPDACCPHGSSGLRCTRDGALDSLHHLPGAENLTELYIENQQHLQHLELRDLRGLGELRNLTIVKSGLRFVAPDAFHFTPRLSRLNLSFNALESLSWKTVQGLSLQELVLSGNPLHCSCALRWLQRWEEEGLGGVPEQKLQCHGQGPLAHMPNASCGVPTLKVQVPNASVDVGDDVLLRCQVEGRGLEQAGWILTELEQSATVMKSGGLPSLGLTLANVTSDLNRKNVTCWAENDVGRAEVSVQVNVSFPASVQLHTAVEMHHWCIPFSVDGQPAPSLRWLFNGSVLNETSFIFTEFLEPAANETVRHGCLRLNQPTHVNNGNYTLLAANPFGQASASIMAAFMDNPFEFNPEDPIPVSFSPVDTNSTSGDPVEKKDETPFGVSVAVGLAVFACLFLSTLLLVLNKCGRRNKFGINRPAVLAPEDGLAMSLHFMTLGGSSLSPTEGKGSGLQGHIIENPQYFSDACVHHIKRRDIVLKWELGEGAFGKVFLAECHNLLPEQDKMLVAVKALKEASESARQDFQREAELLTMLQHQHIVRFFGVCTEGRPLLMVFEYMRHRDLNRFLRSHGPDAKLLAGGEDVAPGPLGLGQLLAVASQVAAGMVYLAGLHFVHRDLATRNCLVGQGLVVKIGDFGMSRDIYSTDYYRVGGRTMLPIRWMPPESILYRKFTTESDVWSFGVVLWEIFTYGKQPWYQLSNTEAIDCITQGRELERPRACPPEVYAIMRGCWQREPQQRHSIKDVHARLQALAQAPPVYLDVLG
Method: as §2, §1

Chain of TrkA WT (P04629 33-796): as the sequence (P04629 33-796 G595R) above, with R563G counted along it
Chain of TrkC WT (Q16288 32-839 S70N): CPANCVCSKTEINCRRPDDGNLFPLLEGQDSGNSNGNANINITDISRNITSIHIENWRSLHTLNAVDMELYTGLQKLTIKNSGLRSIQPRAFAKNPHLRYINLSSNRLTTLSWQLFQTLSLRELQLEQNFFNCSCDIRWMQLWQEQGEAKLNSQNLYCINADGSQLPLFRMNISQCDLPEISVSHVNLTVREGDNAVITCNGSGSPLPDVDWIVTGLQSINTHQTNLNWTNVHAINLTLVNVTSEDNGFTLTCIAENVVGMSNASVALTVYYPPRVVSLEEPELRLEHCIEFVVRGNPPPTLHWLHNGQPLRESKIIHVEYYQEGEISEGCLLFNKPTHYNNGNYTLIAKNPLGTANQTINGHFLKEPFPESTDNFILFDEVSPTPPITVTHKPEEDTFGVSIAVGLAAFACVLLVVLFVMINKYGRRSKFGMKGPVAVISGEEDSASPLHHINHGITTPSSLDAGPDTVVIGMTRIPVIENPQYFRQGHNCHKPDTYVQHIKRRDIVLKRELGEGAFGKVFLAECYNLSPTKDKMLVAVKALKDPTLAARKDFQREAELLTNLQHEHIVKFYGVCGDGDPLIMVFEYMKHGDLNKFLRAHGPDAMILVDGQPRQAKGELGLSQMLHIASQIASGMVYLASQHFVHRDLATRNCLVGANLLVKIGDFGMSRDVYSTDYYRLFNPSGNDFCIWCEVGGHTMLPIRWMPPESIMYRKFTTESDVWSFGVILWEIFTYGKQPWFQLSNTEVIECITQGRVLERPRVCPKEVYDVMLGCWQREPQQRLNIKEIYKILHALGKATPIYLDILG
Chain of TrkA F589L (P04629 33-796 F589L): as the sequence (P04629 33-796 G595R) above, with F557L, R563G counted along it
Chain of TrkB G623R (Q16620 32-822 G623R): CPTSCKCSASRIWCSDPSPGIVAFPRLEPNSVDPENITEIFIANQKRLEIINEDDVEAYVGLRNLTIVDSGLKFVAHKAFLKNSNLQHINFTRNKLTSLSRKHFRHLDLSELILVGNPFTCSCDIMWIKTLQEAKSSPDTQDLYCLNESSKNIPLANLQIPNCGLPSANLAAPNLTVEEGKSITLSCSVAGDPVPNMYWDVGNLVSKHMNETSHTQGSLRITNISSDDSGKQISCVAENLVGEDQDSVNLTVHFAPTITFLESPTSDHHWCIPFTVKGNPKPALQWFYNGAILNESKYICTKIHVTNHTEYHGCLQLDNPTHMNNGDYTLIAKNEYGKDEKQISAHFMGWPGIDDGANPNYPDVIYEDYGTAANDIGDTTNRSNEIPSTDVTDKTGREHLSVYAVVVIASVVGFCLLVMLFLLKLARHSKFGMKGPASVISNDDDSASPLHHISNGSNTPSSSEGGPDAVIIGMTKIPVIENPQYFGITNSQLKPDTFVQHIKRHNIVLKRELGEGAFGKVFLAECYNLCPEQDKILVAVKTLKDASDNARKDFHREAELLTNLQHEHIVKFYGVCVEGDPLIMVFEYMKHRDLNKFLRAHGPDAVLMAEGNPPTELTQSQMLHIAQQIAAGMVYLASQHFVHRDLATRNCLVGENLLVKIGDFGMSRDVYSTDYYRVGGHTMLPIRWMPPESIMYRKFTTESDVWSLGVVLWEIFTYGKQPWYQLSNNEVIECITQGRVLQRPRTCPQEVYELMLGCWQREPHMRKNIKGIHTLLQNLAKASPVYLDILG
Chain of TrkC G623R (Q16288 32-839 S70N/G623R): as the sequence (Q16288 32-839 S70N) above, with G592R counted along it
Chain of TrkA G667C (P04629 33-796 G667C): as the sequence (P04629 33-796 G595R) above, with R563G, G635C counted along it
Chain of TrkC F617L (Q16288 32-839 S70N/F617L): as the sequence (Q16288 32-839 S70N) above, with F586L counted along it
Chain of TrkB WT (Q16620 32-822): as the sequence (Q16620 32-822 G623R) above, with R592G counted along it
Chain of TrkA V573M (P04629 33-796 V573M): as the sequence (P04629 33-796 G595R) above, with V541M, R563G counted along it
Chain of TrkA G667S (P04629 33-796 G667S): as the sequence (P04629 33-796 G595R) above, with R563G, G635S counted along it

| SMILES | IC50 (TrkB G623R) [nM] | IC50 (TrkB WT) [nM] | IC50 (TrkC F617L) [nM] | IC50 (TrkC G623R) [nM] | IC50 (TrkC WT) [nM] | IC50 (TrkA G667C) [nM] | IC50 (TrkA F589L) [nM] | IC50 (TrkA V573M) [nM] | IC50 (TrkA WT) [nM] | IC50 (TrkA G667S) [nM] | IC50 (TrkA G595R) [nM] |
| --- | --- | --- | --- | --- | --- | --- | --- | --- | --- | --- | --- |
| O=C(Nc1cnc2ccc(N3CCC[C@@H]3c3cc(F)ccc3F)nn12)N1CC(O)C1 [Compound 1, (R)-N-(6-(2-(2,5-difluorophenyl)pyrrolidin-1-yl)imidazo[1,2-b]pyridazin-3-yl)-3-hydroxyazetidine-1-carboxamide] | 59.7 | 5.7 | 58 | 29.3 | < 2.5 |  |  |  |  |  |  |
| CN(C)C(=O)Nc1cnc2ccc(N3CCC[C@@H]3c3cc(F)ccc3F)nn12 [Compound 2, (R)-3-(6-(2-(2,5-difluorophenyl)pyrrolidin-1-yl)imidazo[1,2-b]pyridazin-3-yl)-1,1-dimethylurea] | 34.1 | 4.5 | 37.6 | 23.1 | < 2.5 |  |  |  |  |  |  |
| NC(=O)Nc1cnc2ccc(N3CCC[C@@H]3c3cc(F)ccc3F)nn12 [Compound 3, (R)-1-(6-(2-(2,5-difluorophenyl)pyrrolidin-1-yl)imidazo[1,2-b]pyridazin-3-yl)urea] | 90 | 11.9 | 273 | 55.7 | 4.5 |  |  |  |  |  |  |
| CNC(=O)Nc1cnc2ccc(N3CCC[C@@H]3c3cc(F)ccc3F)nn12 [Compound 4, (R)-1-(6-(2-(2,5-difluorophenyl)pyrrolidin-1-yl)imidazo[1,2-b]pyridazin-3-yl)-3-methylurea] | 132 | 10.6 | 177 | 70.8 | 3.1 |  |  |  |  |  |  |
| O=C(Nc1cnn2ccc(N3CCC[C@@H]3c3cc(F)ccc3F)nc12)N1CC(O)C1 [Compound 5, (R)-N-(5-(2-(2,5-difluorophenyl)pyrrolidin-1-yl)pyrazolo[1,5-a]pyrimidin-3-yl)-3-hydroxyazetidine-1-carboxamide] | 132 | 5.9 | 154 | 95 | < 2.5 | 141 | 232 | 152 | 1.1 | 38.5 | 84.6 |
| CN(CCO)C(=O)Nc1cnc2ccc(N3CCC[C@@H]3c3cc(F)ccc3F)nn12 [Compound 6, (R)-3-(6-(2-(2,5-difluorophenyl)pyrrolidin-1-yl)imidazo[1,2-b]pyridazin-3-yl)-1-(2-hydroxyethyl)-1-methylurea] | 27.5 | 5 | 49.7 | 24.1 | < 2.5 |  |  |  |  |  |  |
| CC1(O)CN(C(=O)Nc2cnc3ccc(N4CCC[C@@H]4c4cc(F)ccc4F)nn23)C1 [Compound 7, (R)-N-(6-(2-(2,5-difluorophenyl)pyrrolidin-1-yl)imidazo[1,2-b]pyridazin-3-yl)-3-hydroxy-3-methylazetidine-1-carboxamide] | 47.9 | 7 | 42.5 | 22.7 | < 2.5 |  |  |  |  |  |  |
| CN(C)C(=O)Nc1cnn2ccc(N3CCC[C@@H]3c3cc(F)ccc3F)nc12 [Compound 8, (R)-3-(5-(2-(2,5-difluorophenyl)pyrrolidin-1-yl)pyrazolo[1,5-a]pyrimidin-3-yl)-1,1-dimethylurea] | 64.6 | 5 | 67.1 | 54.9 | < 2.5 | 84.2 | 154 | 129 | 0.9 | 19.7 | 49.6 |
| O=C(Nc1cnn2ccc(N3CCC[C@@H]3c3cc(F)ccc3Cl)nc12)N1CC(O)C1 [Compound 9, (R)-N-(5-(2-(2-chloro-5-fluorophenyl)pyrrolidin-1-yl)pyrazolo[1,5-a]pyrimidin-3-yl)-3-hydroxyazetidine-1-carboxamide] | 104 | 4.6 | 66.5 | 92.6 | < 2.5 | 76.5 | 90.7 | 106 | 0.8 | 21.6 | 91.9 |
| CC1(O)CN(C(=O)Nc2cnn3ccc(N4CCC[C@@H]4c4cc(F)ccc4Cl)nc23)C1 [Compound 10, (R)-N-(5-(2-(2-chloro-5-fluorophenyl)pyrrolidin-1-yl)pyrazolo[1,5-a]pyrimidin-3-yl)-3-hydroxy-3-methylazetidine-1-carboxamide] | 150 | 6.5 | 80.1 | 101 | < 2.5 | 89.2 | 103 | 105 | 0.9 | 27 | 107 |
| O=C(Nc1cnn2ccc(N3CCC[C@@H]3c3cccc(F)c3)nc12)N1CC(O)C1 [Compound 11, (R)-N-(5-(2-(3-fluorophenyl)pyrrolidin-1-yl)pyrazolo[1,5-a]pyrimidin-3-yl)-3-hydroxyazetidine-1-carboxamide] | 671 | 19 | 476 | 446 | 4.4 | 830 | 1080 | 1200 | 6.9 | 275 | 561 |
| NC(=O)c1cnn2ccc(N3CCC[C@@H]3c3cc(F)ccc3F)nc12 [Compound 12, (R)-5-(2-(2,5-difluorophenyl)pyrrolidin-1-yl)pyrazolo[1,5-a]pyrimidine-3-carboxamide] | 1.3 | 3.3 | 9.9 | 1.6 | < 2.5 | 15.6 | 21 | 14.9 | < 0.5 | 3.6 | 1 |
| O=C(NC1CC1)c1cnn2ccc(N3CCC[C@@H]3c3cncc(F)c3)nc12 [Compound 13, (R)-N-cyclopropyl-5-(2-(5-fluoro-pyridin-3-yl)pyrrolidin-1-yl)pyrazolo [1,5-a]pyrimidine-3-carboxamide] | 2.7 | 3.5 | 8.7 | 3.1 | < 2.5 | 32.4 | 37.2 | 20.9 | < 0.5 | 4.1 | 3.3 |
| CONC(=O)c1cnn2ccc(N3CCC[C@@H]3c3cc(F)cnc3OC)nc12 [Compound 14, (R)-5-(2-(5-fluoro-2-methoxypyridin-3-yl)pyrrolidin-1-yl)-N-methoxy-pyrazolo[1,5-a]pyrimidine-3-carboxamide] | 1.5 | 4.4 | 12.4 | 2.7 | < 2.5 | 9 | 14.8 | 12.1 | < 0.5 | 2.8 | 1.5 |
| CC1(NC(=O)c2cnn3ccc(N4CCC[C@@H]4c4cncc(F)c4)nc23)CC1 [Compound 15, (R)-5-(2-(5-fluoropyridin-3-yl)pyrrolidin-1-yl)-N-(1-methylcyclopropyl)pyrazolo [1,5-a]pyrimidine-3-carboxamide] | 1.6 | < 2.5 | < 5 | 1.7 | < 2.5 | 8.1 | 7.3 | 6.3 | < 0.5 | 1.4 | 1.6 |
| O=C1NCCCOc2ncc(F)cc2[C@H]2CCCN2c2ccn3ncc1c3n2 [Compound 16, (6R)-9-fluoro-13-oxa-2,11,17,21,22,25-hexaazapentacyclo[17.5.2.0^2,6.0^7,12.0^22,26]-hexacosa-1(25),7,9,11,19(26),20,23-heptaen-18-one] | 0.9 | 2.9 | < 5 | 1.3 | < 2.5 | 1.1 | < 1 | < 5 | < 0.5 | 0.4 | 0.9 |
| O=C1NC[C@@H](O)COc2ncc(F)cc2[C@H]2CCCN2c2ccn3ncc1c3n2 [Compound 17, (6R,15R)-9-fluoro-15-hydroxy-13-oxa-2,11,17,21,22,25-hexaazapentacyclo-[17.5.2.0^2,6.0^7,12.0^22,26]-hexacosa-1(25), 7,9,11,19(26),20,23-heptaen-18-one] | 1.1 | 3.6 | < 5 | 1.8 | < 2.5 | 2.6 | 2.1 | < 5 | < 0.5 | 0.7 | 1.5 |
| O=C1NCCCOc2ccc(F)cc2[C@H]2CCCN2c2ccn3ncc1c3n2 [Compound 19, (6R)-9-fluoro-13-oxa-2,17,21,22,25-pentaazapentacyclo[17.5.2.0^2,6.0^7,12.0^22,26] hexacosa-1(25),7,9,11,19(26),20,23-heptaen-18-one] | 1 | 4.4 | 5.1 | 1.8 | < 2.5 | 0.9 | 1.1 | < 5 | 0.5 | 0.3 | 1.2 |
